Patent publication US11291659B2, “P38 kinase inhibitors reduce DUX4 and downstream gene expression for the treatment of FSHD” (Fulcrum Therapeutics, Inc., priority 2017, dated 2022)

Columns and labels:
DUX4-fl mRNA = DUX4-fl mRNA by nested qPCR in FSHD myotubes; format: cell-based, Human; details: 10, 100, and 1000 nM vs DMSO
Procedure: In a 6 well plate, 450 μL Buffer RLT Plus was added. Lysate was homogenized by transfer the lysate to a gDNA Eliminator spin column placed in a 2 mL collection tube (supplied), centrifuged for 30 s at ≥8000×g (≥10,000 rpm) and discarded column while saving the flow-through. Then 250 μL of Ethanol (35% final) was added to the flow-through, and mixed well by pipetting, not centrifuged. Then samples were transferred, including any precipitate that may have formed, to an RNeasy MinElute spin column placed in a 2 mL collection tube (supplied). Then centrifuged for 15 s at […]. Flow-through was discarded or collected for Protein precipitation. 700 μL Buffer RW1 to the RNeasy MinElute spin column was added then centrifuge for 15 s at ≥8000×g. and discard the flow-through. DNAse treatment was performed by gently mixing 10 μL DNAseI with 70 μL of Buffer RDD and added directly to the column, incubated at room temperature for 20 min. Then, 700 μL Buffer RW1 (per manufactures specification) to the RNeasy MinElute spin column, centrifuged for 15 s at ≥8000×g. and the flow-through discarded. 500 μL Buffer RPE was added to the RNeasy MinElute spin column centrifuged for 15 s at ≥8000×g and discarded the flow-through. […]
cDNA preparation. […] 10 seconds then read plate on QuantStudio7 as per manufactures instruction (Thermo). […]

active Caspase-3 = test: Apoptosis by active Caspase-3 in FSHD myotubes; format: cell-based, Human; details: FSHD1 and FSHD2 lines; 1 μM
Procedure: Briefly, cells were fixed in 4% paraformaldehyde and […] for 10 min at room temperature. Cells were permeabilized with PBST (1×PBS solution with 0.1% Triton X-100) before blocking with 10% Normal Donkey Serum or 3% BSA (NDS) in PBST. Cells were then incubated with appropriately diluted primary antibodies in PBST with 5% NDS for 1 hours at room temperature or 12 hours at 4° C., washed with PBST for 3 times at room temperature and then incubated with desired secondary antibodies in TBST with 5% NDS and DAPI to counter stain the nuclei. DUX4 was detected by immunocytochemistry using the E5-5 antibody in differentiated FSHD myotubes. Activated Caspase-3 was detected cell signaling antibody that we're using for ICC, Asp175 (https://www.cellsignal.com/products/primary-antibodies/cleaved-caspase-3-asp175-antibody/9661).
Apoptosis was measured by active Caspase-3 levels in FSHD myotubes in vitro as described in Materials and Methods. Apoptosis was detected in a sporadic manner in a subset of myotubes in culture as shown by the white circles and magnified region in FIG. 9A. Active Caspase-3 signal was quantified in FSHD myotubes that had been treated with FTX-1821 at different concentrations (FIG. 9B). […] No change in active Caspase-3 signal was observed following DMSO treatment.

Cn1c(=O)c(Oc2ccc(F)cc2F)cc2cnc(NC(CCO)CCO)nc21 [Pamapimod, 6-(2,4-difluorophenoxy)-2-((1,5-dihydroxypentan-3-yl)amino)-8-methylpyrido[2,3-d]pyrimidin-7(8H)-one] was tested, and the “DUX4-fl mRNA levels normalized to POLR2A mRNA” value (DUX4-fl mRNA) was “dose-dependently reduced” and the “apoptosis (active caspase-3)” value (active Caspase-3) was “reduction in apoptosis”.
